Reference: the kinase profiling compilation of Christmann-Franck et al. (2016)
Blank lines part the entries; values can stand above or below the molecule they belong to.

Key:
Experiment in all cases: radiometric filter-binding kinase assay, Kinase HotSpot
Conditions in all cases: compound 0.5 µM; ATP 10 µM
CDK1 CCNA2 (human) = CDK1 CCNA2 (human) (UniProt P06493+P20248)
CDK1 CCNB1 (human) = CDK1 CCNB1 (human) (UniProt P06493+P14635)
CDK2 CCNA2 (human) = CDK2 CCNA2 (human) (UniProt P24941+P20248)
CDK2 CCNE1 (human) = CDK2 CCNE1 (human) (UniProt P24941+P24864)
CDK3 CCNE1 (human) = CDK3 CCNE1 (human) (UniProt Q00526+P24864)
CDK4 CCND1 (human) = CDK4 CCND1 (human) (UniProt P24385+P11802)
CDK4 CCND1 (human), sequence (P11802 whole entry, looked up): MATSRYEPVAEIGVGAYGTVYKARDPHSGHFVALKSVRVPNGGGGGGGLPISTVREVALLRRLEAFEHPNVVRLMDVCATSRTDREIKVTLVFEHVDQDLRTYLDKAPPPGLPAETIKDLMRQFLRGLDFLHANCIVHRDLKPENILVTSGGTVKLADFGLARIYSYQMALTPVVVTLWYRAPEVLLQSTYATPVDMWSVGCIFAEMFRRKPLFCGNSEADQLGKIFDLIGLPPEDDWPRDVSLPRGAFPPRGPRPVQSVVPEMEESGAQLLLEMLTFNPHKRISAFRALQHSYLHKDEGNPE
CDK4 CCND1 (human), sequence (P24385 whole entry, looked up): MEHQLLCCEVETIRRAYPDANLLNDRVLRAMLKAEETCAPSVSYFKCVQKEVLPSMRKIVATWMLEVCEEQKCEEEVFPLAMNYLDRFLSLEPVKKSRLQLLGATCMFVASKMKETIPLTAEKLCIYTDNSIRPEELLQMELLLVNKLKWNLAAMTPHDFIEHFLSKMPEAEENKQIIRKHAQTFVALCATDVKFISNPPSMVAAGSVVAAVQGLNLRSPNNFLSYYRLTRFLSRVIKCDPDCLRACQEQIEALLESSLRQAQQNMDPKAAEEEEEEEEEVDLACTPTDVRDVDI

CDK4 CCND3 (human) = CDK4 CCND3 (human) (UniProt P30281+P11802)
CDK4 CCND3 (human), sequence (P11802 whole entry, looked up): as the sequence (P11802 whole entry, looked up) above
CDK4 CCND3 (human), sequence (P30281 whole entry, looked up): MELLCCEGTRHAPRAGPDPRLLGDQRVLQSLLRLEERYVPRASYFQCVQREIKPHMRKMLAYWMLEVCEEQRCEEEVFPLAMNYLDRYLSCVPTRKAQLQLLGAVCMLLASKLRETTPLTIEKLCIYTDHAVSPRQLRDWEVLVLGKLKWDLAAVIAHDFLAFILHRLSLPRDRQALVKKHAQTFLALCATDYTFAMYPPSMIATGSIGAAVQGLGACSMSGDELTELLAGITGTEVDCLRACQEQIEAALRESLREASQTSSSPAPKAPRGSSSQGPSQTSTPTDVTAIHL

CDK6 CCND1 (human) = CDK6 CCND1 (human) (UniProt Q00534+P24385)
CDK6 CCND1 (human), sequence (P24385 whole entry, looked up): as the sequence (P24385 whole entry, looked up) above
CDK6 CCND1 (human), sequence (Q00534 whole entry, looked up): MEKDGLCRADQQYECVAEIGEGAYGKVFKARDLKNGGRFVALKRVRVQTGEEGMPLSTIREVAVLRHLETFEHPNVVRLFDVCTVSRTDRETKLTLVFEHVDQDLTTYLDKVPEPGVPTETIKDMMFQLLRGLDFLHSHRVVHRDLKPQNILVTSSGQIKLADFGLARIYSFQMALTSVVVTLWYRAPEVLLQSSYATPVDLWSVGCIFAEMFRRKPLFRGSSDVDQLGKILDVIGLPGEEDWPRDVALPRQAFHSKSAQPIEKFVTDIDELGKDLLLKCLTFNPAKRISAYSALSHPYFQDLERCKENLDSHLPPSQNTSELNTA

CDK6 CCND3 (human) = CDK6 CCND3 (human) (UniProt P30281+Q00534)
CDK7 CCNH MNAT1 (human) = CDK7 CCNH MNAT1 (human) (UniProt P50613+P51948+P51946)
CDK7 CCNH MNAT1 (human), sequence (P50613 whole entry, looked up): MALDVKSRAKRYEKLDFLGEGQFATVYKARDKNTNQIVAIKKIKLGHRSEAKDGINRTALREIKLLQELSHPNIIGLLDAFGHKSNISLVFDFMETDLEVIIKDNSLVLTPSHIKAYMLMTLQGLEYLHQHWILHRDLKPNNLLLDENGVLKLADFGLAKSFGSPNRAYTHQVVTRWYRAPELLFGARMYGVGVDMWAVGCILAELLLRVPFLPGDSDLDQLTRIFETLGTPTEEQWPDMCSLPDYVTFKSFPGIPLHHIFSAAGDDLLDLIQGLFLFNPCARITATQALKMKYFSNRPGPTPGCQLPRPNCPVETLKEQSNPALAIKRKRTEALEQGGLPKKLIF
CDK7 CCNH MNAT1 (human), sequence (P51946 whole entry, looked up): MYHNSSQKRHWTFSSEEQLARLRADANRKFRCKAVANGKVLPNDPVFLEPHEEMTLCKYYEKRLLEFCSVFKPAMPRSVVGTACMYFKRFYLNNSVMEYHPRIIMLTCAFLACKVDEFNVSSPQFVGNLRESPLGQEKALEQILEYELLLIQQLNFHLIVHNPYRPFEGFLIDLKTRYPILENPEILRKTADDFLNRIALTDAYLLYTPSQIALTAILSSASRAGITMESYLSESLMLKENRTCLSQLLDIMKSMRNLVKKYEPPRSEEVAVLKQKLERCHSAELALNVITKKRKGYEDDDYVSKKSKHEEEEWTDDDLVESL
CDK7 CCNH MNAT1 (human), sequence (P51948 whole entry, looked up): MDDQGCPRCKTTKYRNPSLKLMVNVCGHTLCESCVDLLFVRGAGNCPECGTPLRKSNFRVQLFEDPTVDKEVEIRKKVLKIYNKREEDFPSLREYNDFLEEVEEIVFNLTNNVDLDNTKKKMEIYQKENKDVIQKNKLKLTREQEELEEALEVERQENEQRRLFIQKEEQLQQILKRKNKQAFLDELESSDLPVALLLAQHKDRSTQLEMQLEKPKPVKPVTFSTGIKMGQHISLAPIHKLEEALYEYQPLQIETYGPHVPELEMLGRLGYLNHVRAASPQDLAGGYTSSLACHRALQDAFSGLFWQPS

CDK9 CCNK (human) = CDK9 CCNK (human) (UniProt O75909+P50750)
CDK9 CCNK (human), sequence (O75909 whole entry, looked up): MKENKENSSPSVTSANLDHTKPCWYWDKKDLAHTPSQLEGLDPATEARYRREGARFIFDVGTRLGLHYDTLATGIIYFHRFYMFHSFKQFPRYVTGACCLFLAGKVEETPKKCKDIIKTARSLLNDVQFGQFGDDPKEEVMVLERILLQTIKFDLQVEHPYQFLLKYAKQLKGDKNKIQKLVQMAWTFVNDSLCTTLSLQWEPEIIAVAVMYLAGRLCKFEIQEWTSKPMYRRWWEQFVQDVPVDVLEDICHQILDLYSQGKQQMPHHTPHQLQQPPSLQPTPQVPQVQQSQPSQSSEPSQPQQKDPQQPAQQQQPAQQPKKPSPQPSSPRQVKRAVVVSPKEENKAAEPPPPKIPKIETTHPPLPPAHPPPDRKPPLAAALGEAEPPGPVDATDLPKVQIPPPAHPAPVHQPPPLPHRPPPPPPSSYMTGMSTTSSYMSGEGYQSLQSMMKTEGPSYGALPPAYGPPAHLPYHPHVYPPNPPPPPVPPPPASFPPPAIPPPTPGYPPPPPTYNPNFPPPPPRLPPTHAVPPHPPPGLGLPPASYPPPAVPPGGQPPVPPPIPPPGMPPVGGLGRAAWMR
CDK9 CCNK (human), sequence (P50750 whole entry, looked up): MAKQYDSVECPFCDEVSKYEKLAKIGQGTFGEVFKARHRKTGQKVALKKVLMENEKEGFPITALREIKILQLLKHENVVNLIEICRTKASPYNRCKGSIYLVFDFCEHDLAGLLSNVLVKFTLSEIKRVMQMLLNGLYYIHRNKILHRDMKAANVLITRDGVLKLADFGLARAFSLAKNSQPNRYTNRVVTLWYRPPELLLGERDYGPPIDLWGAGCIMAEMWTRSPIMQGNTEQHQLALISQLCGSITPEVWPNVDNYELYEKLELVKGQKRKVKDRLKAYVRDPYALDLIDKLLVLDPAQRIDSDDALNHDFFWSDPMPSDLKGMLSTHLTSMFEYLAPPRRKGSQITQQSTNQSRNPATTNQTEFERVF

CDK9 CCNT1 (human) = CDK9 CCNT1 (human) (UniProt P50750+O60563)
DYRK1B (human) = DYRK1B (human) (UniProt Q9Y463)
LTK (human) = LTK (human) (UniProt P29376)
MAP3K7 TAB1 (human) = MAP3K7 TAB1 (human) (UniProt O43318+Q15750)
PRKCH (human) = PRKCH (human) (UniProt P24723)
STK33 (human) = STK33 (human) (UniProt Q9BYT3)
STK33 (human), sequence (Q9BYT3 whole entry, looked up): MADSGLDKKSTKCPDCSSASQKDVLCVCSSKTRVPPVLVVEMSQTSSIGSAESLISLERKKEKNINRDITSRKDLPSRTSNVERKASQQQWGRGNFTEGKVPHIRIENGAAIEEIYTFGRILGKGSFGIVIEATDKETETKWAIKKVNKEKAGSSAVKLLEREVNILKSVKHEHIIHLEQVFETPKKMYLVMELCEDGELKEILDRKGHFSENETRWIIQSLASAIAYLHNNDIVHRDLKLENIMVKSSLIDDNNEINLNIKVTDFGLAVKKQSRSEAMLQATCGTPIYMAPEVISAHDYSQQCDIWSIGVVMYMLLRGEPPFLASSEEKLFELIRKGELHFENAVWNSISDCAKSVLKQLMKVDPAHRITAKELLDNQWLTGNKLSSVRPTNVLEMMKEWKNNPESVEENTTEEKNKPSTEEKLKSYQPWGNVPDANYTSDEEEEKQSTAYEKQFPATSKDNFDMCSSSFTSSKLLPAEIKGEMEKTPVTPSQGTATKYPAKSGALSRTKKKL

CDK5 CDK5R1 p25 (human) = CDK5 CDK5R1 p25 (human) (UniProt Q00535+Q15078)
CDK5 CDK5R1 p35 (human) = CDK5 CDK5R1 p35 (human) (UniProt Q00535+Q15078)
[1] = test system: FLT4 (human), P35916 [Q890H]
[2] = test system: MAP2K6 (human), P52564 [S207E/T211E]
[3] = test system: MKNK1 (human), Q9BUB5 [T385D; 165-205 del]
MKNK1 (human), Q9BUB5 [T385D; 165-205 del], sequence (Q9BUB5 whole entry, looked up, stated change not applied): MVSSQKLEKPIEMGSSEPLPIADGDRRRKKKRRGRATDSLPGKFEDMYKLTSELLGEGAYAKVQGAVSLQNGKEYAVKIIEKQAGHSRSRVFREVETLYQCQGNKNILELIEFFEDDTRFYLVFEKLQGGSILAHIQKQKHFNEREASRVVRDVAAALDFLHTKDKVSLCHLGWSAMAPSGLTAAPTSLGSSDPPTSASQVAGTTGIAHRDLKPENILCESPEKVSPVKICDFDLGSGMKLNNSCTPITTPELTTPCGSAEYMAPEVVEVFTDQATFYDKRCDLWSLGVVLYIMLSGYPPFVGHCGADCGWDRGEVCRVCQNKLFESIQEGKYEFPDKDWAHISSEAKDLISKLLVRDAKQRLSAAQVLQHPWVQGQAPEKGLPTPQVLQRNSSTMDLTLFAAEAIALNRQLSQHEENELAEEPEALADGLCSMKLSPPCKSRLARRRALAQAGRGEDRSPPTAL

[4] = test system: PRKCQ (human), Q04759 [P330L]

Compound: O=C1c2ccccc2-c2n[nH]c3cccc1c23
residual activity (CDK1 CCNA2 (human)): 85.6%
residual activity (CDK1 CCNB1 (human)): 63.4%
residual activity (CDK2 CCNA2 (human)): 76.1%
residual activity (CDK2 CCNE1 (human)): 79.5%
residual activity (CDK3 CCNE1 (human)): 94.3%
residual activity (CDK4 CCND1 (human)): 96.3%
residual activity (CDK4 CCND3 (human)): 104%
residual activity (CDK6 CCND1 (human)): 88.6%
residual activity (CDK6 CCND3 (human)): 88.6%
residual activity (CDK7 CCNH MNAT1 (human)): 94.7%
residual activity (CDK9 CCNK (human)): 96%
residual activity (CDK9 CCNT1 (human)): 99.3%
residual activity (DYRK1B (human)): 65.7%
residual activity (LTK (human)): 77.8%
residual activity (MAP3K7 TAB1 (human)): 59.3%
residual activity (PRKCH (human)): 87.6%
residual activity (STK33 (human)): 47.7%

Compound: Cc1cn(-c2cc(NC(=O)c3ccc(C)c(Nc4nccc(-c5cccnc5)n4)c3)cc(C(F)(F)F)c2)cn1
residual activity (CDK1 CCNA2 (human)): 99.7%
residual activity (CDK1 CCNB1 (human)): 97.8%
residual activity (CDK2 CCNA2 (human)): 95.5%
residual activity (CDK2 CCNE1 (human)): 98.9%
residual activity (CDK3 CCNE1 (human)): 95.2%
residual activity (CDK4 CCND1 (human)): 97%
residual activity (CDK4 CCND3 (human)): 108%
residual activity (CDK5 CDK5R1 p25 (human)): 91.7%
residual activity (CDK5 CDK5R1 p35 (human)): 105%
residual activity (CDK6 CCND1 (human)): 97.1%
residual activity (CDK6 CCND3 (human)): 128%
residual activity (CDK7 CCNH MNAT1 (human)): 109%
residual activity (CDK9 CCNK (human)): 97.9%
residual activity (CDK9 CCNT1 (human)): 94.7%
residual activity (DYRK1B (human)): 92.8%
residual activity (LTK (human)): 101%
residual activity (MAP3K7 TAB1 (human)): 89.2%
residual activity (PRKCH (human)): 121%
residual activity (STK33 (human)): 87.1%

residual activity [1]: 94%
residual activity [2]: 93.2%
residual activity [3]: 105%
residual activity [4]: 122%
Compound: CC(C)N(CCC(=O)c1ccc2ccccc2c1)Cc1ccccc1

Compound: CN1CCN(c2ccc3nc(-c4c(N)c5c(F)cccc5[nH]c4=O)[nH]c3c2)CC1
residual activity (CDK1 CCNA2 (human)): 93.6%
residual activity (CDK1 CCNB1 (human)): 90.9%
residual activity (CDK2 CCNA2 (human)): 91%
residual activity (CDK2 CCNE1 (human)): 92.3%
residual activity (CDK3 CCNE1 (human)): 92.3%
residual activity (CDK4 CCND1 (human)): 79.5%
residual activity (CDK4 CCND3 (human)): 89.6%
residual activity (CDK6 CCND1 (human)): 74.6%
residual activity (CDK6 CCND3 (human)): 31.9%
residual activity (CDK7 CCNH MNAT1 (human)): 104%
residual activity (CDK9 CCNK (human)): 91.1%
residual activity (CDK9 CCNT1 (human)): 97.7%
residual activity (DYRK1B (human)): 87.9%
residual activity (LTK (human)): 92.5%
residual activity (MAP3K7 TAB1 (human)): 19.3%
residual activity (PRKCH (human)): 103%
residual activity (STK33 (human)): 60.7%

residual activity [1]: 112%
residual activity [2]: 94.1%
residual activity [3]: 95%
residual activity [4]: 90.6%
Compound: O=c1cc(N2CCOCC2)oc2c1ccc1ccccc12

residual activity [1]: 112%
residual activity [2]: 93.5%
residual activity [3]: 103%
residual activity [4]: 92.5%
Compound: O=C(c1ccccc1)c1ccc(N2CCOCC2)cc1O

Compound: NCCNc1ncc(C(N)=O)c(Nc2cccc(C(F)(F)F)c2)n1
residual activity (CDK1 CCNA2 (human)): 88.3%
residual activity (CDK1 CCNB1 (human)): 81.7%
residual activity (CDK2 CCNA2 (human)): 97.6%
residual activity (CDK2 CCNE1 (human)): 89%
residual activity (CDK3 CCNE1 (human)): 95.3%
residual activity (CDK4 CCND1 (human)): 108%
residual activity (CDK4 CCND3 (human)): 94.8%
residual activity (CDK5 CDK5R1 p25 (human)): 92.4%
residual activity (CDK5 CDK5R1 p35 (human)): 84.2%
residual activity (CDK6 CCND1 (human)): 94.6%
residual activity (CDK6 CCND3 (human)): 100%
residual activity (CDK7 CCNH MNAT1 (human)): 98.5%
residual activity (CDK9 CCNK (human)): 95.6%
residual activity (CDK9 CCNT1 (human)): 82%
residual activity (DYRK1B (human)): 85.9%
residual activity (LTK (human)): 84.8%
residual activity (MAP3K7 TAB1 (human)): 71.2%
residual activity (STK33 (human)): 81.9%

residual activity [1]: 102%
residual activity [2]: 107%
residual activity [3]: 100%
residual activity [4]: 107%
Compound: O=C(NC(NC(=S)Nc1ccc(F)c([N+](=O)[O-])c1)C(Cl)(Cl)Cl)C(c1ccccc1)c1ccccc1 (stereo unspecified)

residual activity [1]: 86.8%
residual activity [2]: 96.4%
residual activity [3]: 105%
residual activity [4]: 106%
Compound: Cn1nc2c3c(cccc31)C(=O)c1ccccc1-2

residual activity [1]: 89.7%
residual activity [2]: 104%
residual activity [3]: 39.9%
residual activity [4]: 96.9%
Compound: Cn1cnc2cc3c(Nc4cccc(Br)c4)ncnc3cc21

Compound: N/C(=N\N=C/c1ccc(-c2cccc([N+](=O)[O-])c2)o1)N[N+](=O)[O-]
residual activity [1]: 86.3%
residual activity [2]: 111%
residual activity [3]: 97.4%
residual activity [4]: 94.6%

residual activity [1]: 94.1%
residual activity [2]: 95.9%
residual activity [3]: 87.1%
residual activity [4]: 98.7%
Compound: COc1ccc(-c2cnc3c(-c4ccsc4)cnn3c2)cc1

residual activity [1]: 95.9%
residual activity [2]: 98.3%
residual activity [3]: 91%
residual activity [4]: 107%
Compound: O=C(Nc1cccc(Nc2nccc(Nc3cccc(C(F)(F)F)c3)n2)c1)C1CC1

residual activity [1]: 87.3%
residual activity [2]: 96.4%
residual activity [3]: 103%
residual activity [4]: 105%
Compound: O=C1Nc2ccc(Cl)cc2/C1=C/c1cc(Cl)c(O)c(Cl)c1
